Tests used:
[1] = test system: B-type flu virus (jifang/97-13)
[2] = test system: A-type flu virus (jifang/90-15)

Row | SMILES | Activity for inhibiting B-type flu viruses SI (selection index, SI = TC50/IC50) [1] | Activity for inhibiting A-type flu viruses SI (selection index, SI = TC50/IC50) [2]
1 | C=C(C(=O)Nc1ccc(Cl)cc1)C1CCC(C)C2CC(=O)C(C)=C2C1 (stereo not shown) [A-2, N(4-chloro-phenyl)-Rupestonic amide] | 4.0 | 6.3
2 | C=C(C(=O)Nc1ccccc1Br)C1CCC(C)C2CC(=O)C(C)=C2C1 (stereo not shown) [A-5, N(2-bromo-phenyl)-Rupestonic amide] |  | 3.3
3 | C=C(C(=O)OCC)C1CCC(C)C2CC(=O)C(C)=C2C1 (stereo not shown) [B-1, Ethyl Rupestonic ester] | 3.8 | 4.9
4 | C=C(C(=O)Oc1ccc(Cl)cc1)C1CCC(C)C2CC(=O)C(C)=C2C1 (stereo not shown) [B-2, Rupestonic (p-chlorophenyl)-ester] |  | 12.6
5 | C=C(C(=O)Oc1ccccc1Cl)C1CCC(C)C2CC(=O)C(C)=C2C1 (stereo not shown) [B-3, Rupestonic (o-chlorophenyl)-ester] |  | 4.3
6 | C=C(C(=O)Oc1ccc(Br)cc1)C1CCC(C)C2CC(=O)C(C)=C2C1 (stereo not shown) [B-4, Rupestonic (p-bromophenyl)-ester] |  | 4.3
7 | C=C(C(=O)Oc1ccc(C)cc1)C1CCC(C)C2CC(=O)C(C)=C2C1 (stereo not shown) [B-9, Rupestonic (p-methylphenyl)-ester] |  | 14.3
8 | C=C(C(=O)OCc1ccc(Cl)cc1)C1CCC(C)C2CC(=O)C(C)=C2C1 (stereo not shown) [B-14, Rupestonic (p-chlorobenzyl)-ester] | 2.5 | 3.8
9 | C=C(C(=O)OCc1ccc([N+](=O)[O-])cc1)C1CCC(C)C2CC(=O)C(C)=C2C1 (stereo not shown) [B-15, Rupestonic (p-nitryl-benzyl)-ester] | 4.6 | 4.6
10 | C=C(C(=O)OCc1ccccc1Br)C1CCC(C)C2CC(=O)C(C)=C2C1 (stereo not shown) [B-17, Rupestonic (o-bromobenzyl)-ester] | 2.2 | 3.9
11 | C=C(C(=O)O)[C@H]1CC[C@H](C)[C@@H]2CC(=O)C(C)=C2C1 [Compound 1, rupestonic acid] | 9.00 | 
12 | CCOC(=O)C1=C[C@@H](OC(CC)CC)[C@H](NC(C)=O)[C@@H](N)C1 [Oseltamivir] |  | >239.1
13 | NC(=O)c1ncn([C@@H]2O[C@H](CO)[C@@H](O)[C@H]2O)n1 [Ribavirin] | 132.1 | 982.8

Reference: US20100087523A1, “Rupestonic acid derivatives and use thereof” (priority 2008, published 2010)
